From patent US11839215B2, “Uracil compound and harmful arthropod control composition containing same” (Sumitomo Chemical Company, Limited, priority 2018, dated 2023) come the findings set out here.

The subject of the data set is common cutworms (Spodoptera litura). In words: Test Example 1: spray on cabbage seedling, mortality of common cutworm larvae. The data set is classed as in vivo. The note with it: 500 ppm diluted solution sprayed on cabbage seedling 20 mL/seedling; five second instar larvae; 25° C., 5 days. As for the experimental part:
The compound A is made to a formulation according to a similar method to that described in the Formulation Example 5, and thereto is added water containing 0.03 v/v % of shindain (registered trademark) to prepare a diluted solution containing 500 ppm of the test compound.
The diluted solution was sprayed into the cabbage (Brassicae oleracea) seedling (on the developmental stage of the second to third true leaf) that is planted in a container in a ratio of 20 mL/seedling.
Thereafter, the stem and leaf thereof was cut out and then was installed into the container that was covered with the filter paper. Five common cutworms (Spodoptera litura) at the second instar larval stages were released into the container, and the container was allowed to stand at 25° C. for 5 days. […] Mortality (%)={1−Number of the surviving insects/5}×100

For `CCOC(=O)COc1nc(C)cc(C)c1Oc1cc(-n2c(=O)cc(C(F)(F)F)n(C)c2=O)c(F)cc1Cl` [Compound A], the mortality of insects is 100%.
`CCOC(=O)COc1ncccc1Oc1cc(-n2c(=O)cc(C(F)(F)F)n(C)c2=O)c(F)cc1Cl` [Compound B] showed a mortality of insects of 0%.
